In US20230382869A1, “Phenyl-3,4-dihydroisoquinolin-2(1h)-yl-ethan-1-one derivatives as dopamine d1receptor positive allosteric modulators” (Eli Lilly and Company, priority 2020, published 2023):
Where two headings read alike, the source gives them in different places. Marks after values point to notes of the source that are not given here.

Columns and labels:
[1] = Fraction unbound in vitro (equilibrium dialysis); format: in vitro ADME
Description: (§1) Example 7, 2-(2-chloro-6-fluoro-phenyl)-1-[(1S,3R)-6-fluoro-3-(hydroxymethyl)-5-(3-hydroxy-3-methyl-butyl)-1-methyl-3,4-dihydro-1H-isoquinolin-2-yl]ethenone, was orally dosed to male mouse from 3 mg/kg to 60 mg/kg in fed condition, and the plasma and brain concentration was determined 1 hr post-dose. The fraction unbound of the compound was determined in vitro as described previously (Zamek-Gliszczynski M J, et al., Validation of 96-well equilibrium dialysis with non-radiolabeled drug for definitive measurement of protein binding and application to clinical development of highly-bound drugs, J. Pharm. Sci. (2011) 100: 2498-2507). The ratio (Kpuu) of unbound brain concentration (Cu, brain) vs. unbound plasma concertation (Cu, plasma) was determined as described previously (Raub T J, et al., Brain Exposure of Two Selective Dual CDK4 and CDK6 Inhibitors and the Antitumor Activity of CDK4 and CDK6 Inhibition in Combination with Temozolomide in an Intracranial Glioblastoma Xenograft. Drug Metab. Dispos. (2015) 43:1360-71). The data presented below in Table 3 for Example 7 are averages from 3 animals at each dose. “Con.” refers to concentration.

[2] = Fraction escaping first-pass gut metabolism (FG); parameters: species or system human; settings: calculated
Description: The estimation of fraction metabolized in the gut may be determined using the following equation found in Yang J, et al. (2007) Prediction of intestinal first-pass drug metabolism. Curr Drug Metab 8:676-684:
FG=Qgut/(Qgut+fugut×Clint CYP3A,gut)
Qgut=Qvilli×Clperm/(Qvilli+Clperm)
Clperm═Papp×Intestinal surface area
Clint,CYP3A,gut=CLint,CYP3A,liver/fumic×microsomal protein in gut (mg)×0.4 (in house calculation) Where Qgut is a hybrid flow term dependent upon the villous blood flow and permeability of the compound fugut is the fraction of drug unbound in the enterocyte
Qvilli is villous blood flow
Clperm is the clearance term defining permeability through the enterocyte
Papp is the passive permeability measured in MDCKII cell line in house fumic is the fraction of drug unbound in human liver microsomes
Human intestine parameters are from Yang et al., 2007, and Gertz M, et al. (2010) Prediction of human intestinal first-pass metabolism of 25 CYP3A substrates from in vitro clearance and permeability data. Drug Metab Dispos 38:1147-1158.

[3] = tested on: human D1 receptor knock-in mice; test: Basal (Habituated) Locomotor Activity; format: in vivo, mouse; settings: for Basal Locomotor Activity (Total Ambulations for 60 min) Means: N = 8/group
Description: Locomotor activity is measured using an automated system to track movement in mice. Monitoring of mouse locomotor activity behaviors take place in transparent plastic shoebox cages having dimensions of 45×25×20 cm, with a 1 cm depth of wood chips for absorbent bedding, and covered with a ventilated filtered plastic cage top. Cages were placed in a rectangular frame containing a grid of 12 photocell beams in an 8×4 configuration (Kinder Scientific, Poway, CA) that is positioned 2.5 centimeters from the floor of the cage for the detection of body movements (ambulations) and recorded by computer.
Male human D1 receptor knock-in mice are placed in chambers and allowed to habituate to the chambers for 60 min. During the habituation period, the mice show decreasing locomotion over time, as expected. Following administration of a compound of the invention, animal movement is found to increase in a dose-dependent fashion.
The mice are randomly assigned to treatment groups. In the dose response study, each mouse is placed individually into one of the locomotor activity boxes for a 60 min. habituation period. The mice are then dosed orally using test compound in a 20% hydroxypropyl-betacyclodextrin vehicle and using a 10 mL/kg dose volume. After dosing, the mice are placed back into the LMA boxes and the total number of ambulations is recorded per 10 min interval for each mouse over a 60 min measurement period. Statistical analysis is carried out using one-way ANOVA followed by post-hoc analysis using Dunnett's Comparison test.

[4] = In vivo tolerability in normal rats; settings: broad dose range
[5] = Plasma and Brain Levels after oral dosing; format: in vivo, mouse; settings: for Kp uu at 1 h: ratio Cu,brain vs Cu,plasma
Description: as §1

[6] = Fraction of drug unbound in human liver microsomes (fumic); format: in vitro ADME
Description: fumic is the fraction of drug unbound in human liver microsomes

Cytochrome P450 (CYP) = test: Fraction of CYP-mediated oxidative metabolism (fmCYP) in human hepatocytes with/without ABT; format: in vitro ADME
Description: The relative contribution of P450 s in the overall metabolism of a compound was determined from the clearance of the drug in an assay using human hepatocytes in the presence and absence of the pan P450 inhibitor 1-aminobenzotriazole (ABT). The intrinsic clearance was determined in cryopreserved human hepatocytes essentially as described in McGinnity D F, et al. (2004) Evaluation of fresh and cryopreserved hepatocytes as in vitro drug metabolism tools for the prediction of metabolic clearance. Drug Metab Dispos 32:1247-1253. Generally, the assay incubations contain 0.3 μM test compound and 10^6 cells/mL hepatocytes, with or without 0.5 hr. pre-incubation with ABT (1 mM). Parent compound loss is measured by LC/MS after 15, 30, 60 and 90 min. incubation. The intrinsic clearance (μL/min/10^6 cells) is calculated using the following equation for both ±ABT. The fraction of metabolism by CYP is the percentage of inhibition by ABT.
CLint=−kdep×incubation volume/10^6 cells,
in which the kdep, the substrate depletion constant (min^−1), is the slope determined using linear regression from the log transformed % remaining on the y-axis vs time on the x-axis (min^−1).

SMILES: C[C@H]1c2ccc(F)c(CCC(C)(C)O)c2C[C@H](CO)N1C(=O)Cc1c(F)cccc1Cl [Example 7, 2-(2-chloro-6-fluoro-phenyl)-1-[(1S,3R)-6-fluoro-3-(hydroxymethyl)-5-(3-hydroxy-3-methyl-butyl)-1-methyl-3,4-dihydro-1H-isoquinolin-2-yl]ethanone]
- fraction unbound ([1]; fraction unbound in brain, read-out: fu, brain): 0.0249
- fraction unbound ([1]; fraction unbound in plasma, read-out: fu, plasma): 0.0141
- FG [2]: 0.78
- Basal Locomotor Activity (Total Ambulations for 60 min) Means ([3]; 3.0 mg/kg PO): 538
- Basal Locomotor Activity (Total Ambulations for 60 min) Means ([3]; 6.0 mg/kg PO): 1111
- Basal Locomotor Activity (Total Ambulations for 60 min) Means ([3]; 10 mg/kg PO): 1471***
- Basal Locomotor Activity (Total Ambulations for 60 min) Means ([3]; 30 mg/kg PO): 3937****
- Basal Locomotor Activity (Total Ambulations for 60 min) Means ([3]; 60 mg/kg PO): 4613****
- in vivo efficacy in locomotor activation ([3]; 10, 30, and 60 mg/kg PO, habituated mice): significant in vivo efficacy
- basal movement ([3]; oral dose response, 3-60 mg/kg): increase basal movement in a dose dependent manner
- tolerability / toxicity in vivo [4]: generally well tolerated
- concentration at 1 h ([5]; brain, 3 mg/kg oral, 1 hr post-dose, male mouse, fed, read-out: Brain con.): 18 nM
- concentration at 1 h ([5]; brain, 6 mg/kg oral, 1 hr post-dose, male mouse, fed, read-out: Brain con.): 45.1 nM
- concentration at 1 h ([5]; brain, 10 mg/kg oral, 1 hr post-dose, male mouse, fed, read-out: Brain con.): 84.9 nM
- concentration at 1 h ([5]; brain, 30 mg/kg oral, 1 hr post-dose, male mouse, fed, read-out: Brain con.): 557 nM
- concentration at 1 h ([5]; brain, 60 mg/kg oral, 1 hr post-dose, male mouse, fed, read-out: Brain con.): 1290 nM
- Kp uu at 1 h ([5]; male, mouse, 3 mg/kg oral, 1 hr): 0.126
- Kp uu at 1 h ([5]; male, mouse, 6 mg/kg oral, 1 hr): 0.143
- Kp uu at 1 h ([5]; male, mouse, 10 mg/kg oral, 1 hr): 0.122
- Kp uu at 1 h ([5]; male, mouse, 30 mg/kg oral, 1 hr): 0.194
- Kp uu at 1 h ([5]; male, mouse, 60 mg/kg oral, 1 hr): 0.248
- concentration at 1 h ([5]; male, mouse, unbound brain concentration, 3 mg/kg oral, 1 hr, read-out: Cu, brain): 0.448 nM
- concentration at 1 h ([5]; male, mouse, unbound brain concentration, 6 mg/kg oral, 1 hr, read-out: Cu, brain): 1.12 nM
- concentration at 1 h ([5]; male, mouse, unbound brain concentration, 10 mg/kg oral, 1 hr, read-out: Cu, brain): 2.11 nM
- concentration at 1 h ([5]; male, mouse, unbound brain concentration, 30 mg/kg oral, 1 hr, read-out: Cu, brain): 13.9 nM
- concentration at 1 h ([5]; male, mouse, unbound brain concentration, 60 mg/kg oral, 1 hr, read-out: Cu, brain): 32.1 nM
- concentration at 1 h ([5]; male, mouse, unbound plasma concentration, 3 mg/kg oral, 1 hr, read-out: Cu, plasma): 4.97 nM
- concentration at 1 h ([5]; male, mouse, unbound plasma concentration, 6 mg/kg oral, 1 hr, read-out: Cu, plasma): 9.62 nM
- concentration at 1 h ([5]; male, mouse, unbound plasma concentration, 10 mg/kg oral, 1 hr, read-out: Cu, plasma): 17.1 nM
- concentration at 1 h ([5]; male, mouse, unbound plasma concentration, 30 mg/kg oral, 1 hr, read-out: Cu, plasma): 70.1 nM
- concentration at 1 h ([5]; male, mouse, unbound plasma concentration, 60 mg/kg oral, 1 hr, read-out: Cu, plasma): 128 nM
- concentration at 1 h ([5]; plasma, 3 mg/kg oral, 1 hr post-dose, male mouse, fed, read-out: Plasma con.): 353 nM
- concentration at 1 h ([5]; plasma, 6 mg/kg oral, 1 hr post-dose, male mouse, fed, read-out: Plasma con.): 682 nM
- concentration at 1 h ([5]; plasma, 10 mg/kg oral, 1 hr post-dose, male mouse, fed, read-out: Plasma con.): 1210 nM
- concentration at 1 h ([5]; plasma, 30 mg/kg oral, 1 hr post-dose, male mouse, fed, read-out: Plasma con.): 4980 nM
- concentration at 1 h ([5]; plasma, 60 mg/kg oral, 1 hr post-dose, male mouse, fed, read-out: Plasma con.): 9080 nM
- fumic [6]: 0.392
- route of metabolism in hepatocytes (Cytochrome P450 (CYP)): primarily metabolized through non-oxidative processes
- fmCYP (Cytochrome P450 (CYP); CLint ±ABT (1 mM), 0.3 μM compound): 0.322
- fractions metabolized by CYPs (Cytochrome P450 (CYP); ±ABT): 32.3%
